Assay results reported in PubChem BioAssay AID1963431 (Molecular Pharmacology Branch, DTP, NCI, 2024).
Where “and” joins values, the source holds several entries; their conditions need not be identical. Equal values may be shown once. One block for each compound: values may come before it.

System: Rh18 complex spheroid viability, percent test/control
Assay: Anticancer human tumor Rh18 cell line growth inhibition [Asc];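 further: spheroids exposed to compound for 7 days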;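 on viability, T/C: 100% = DMSO vehicle control wells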
Conditions: for viability, T/C: stronger effect = lower value
Experimental: Multicellular complex tumor spheroid response to apoptosis pathway targeting inhibitors Alrizomadlin, Pelcitoclax, and Dasminapant in combination with a variety of drugs and investigational agents in selected tumor cell lines
The MDM2 inhibitor alrizomadlin, the Bcl-2/Bcl-xL inhibitor pelcitoclax, and the IAPs inhibitor dasminapant were evaluated both individually and in combination with standard of care and investigational anticancer small molecules within a complex spheroid model of solid tumors. . Complex spheroids include a stromal component modeled by human endothelial cells (HUVEC) and fibroblasts modeled by human mesenchymal stem cells (MSCs). The concentration ranges selected for each drug and investigational agent were based upon clinically achievable concentrations if the clinical Cmax of the agent was known.
Compounds. The drugs and investigational agents: alrizomadlin (APG-115; NSC831270), pelcitoclax (APG-1252; NSC835773), dasminapant (APG-1387;NSC834197), TAK-243 (NSC785004), copanlisib (NSC809693), olaparib (NSC753686), talazoparib (NSC767125), cobimetinib (NSC 768068), eltanexor (KPT-8602, NSC 794443), abemaciclib (NSC 768073), sotorasib (NSC818433), adagrasib (NSC 831453), MRTX-1133 (NSC 836407), Iadademestat (ORY1001, NSC 806812), and RMC-4630 (NSC839698), were obtained from the NCI Developmental Therapeutics Program Chemical Repository. The FDA-approved anticancer drug set is available from the Developmental Therapeutics Program at https://dtp.cancer.gov/organization/dscb/obtaining/available plates.htm. […] The stock solutions were prepared in dimethyl sulfoxide (DMSO, Sigma-Aldrich, St. Louis, MO, cat. D2650) at 800-fold the tested concentration and stored at -70 degrees C prior to their use. All drugs and investigational agents were tested over a range starting from a high concentration at or near the clinical Cmax and decreasing in half-log increments. If the clinical Cmax for an agent had not been determined, the highest concentration tested was 10 microM.
The patient-derived cancer (PDC) cell lines include five colon adenocarcinomas: 186277-243-T-J2-PDC, 616215-338-R-J1-PDC, 439559-082-T-J2-PDC, 463943-066-T-J2-PDC, and 519858-162-T-J1-PDC; three pancreatic carcinomas: 323965-272-R-J2-PDC, 521955-158-R6-J3-PDC, and 521955-158-R2-J5-PDC; two uterine sarcomas: 327498-152-R-J2-PDC and 993429-296-R-J1-PDC; two rhabdomyosarcomas: 755483-174-R-J1-PDC and 772245-204-R-J1-PDC; two soft tissue sarcomas: 126254-015-R-J1-PDC and 494315-158-R-J1-PDC; two malignant fibrous histiocytomas: 317291-083-R-J1-PDC and 596521-263-R-J1-PDC; two breast carcinomas: 171881-019-R-J1-PDC and 885512-296-R-J2-PDC; and one ovarian carcinoma: 6556581-035-R-J-PDC were obtained from the NCI PDMR, (https://pdmr.cancer.gov). The established cell lines HSSY-2 synovial sarcoma (RRID:CVCL 8719), SYO-1 synovial sarcoma (RRID:CVCL_7146), MPNST malignant peripheral neural sheath tumor were obtained from the Sloan Kettering Institute. The following established cell lines were purchased from the American Type Culture Collection (ATCC, Manassas, VA), Sor the received from the NCI repository:, PANC-1 pancreatic carcinoma (CRL-1469, RRID:CVCL_0480), OVCAR-5 ovarian carcinoma (RRID:CVCL_1628), OVCAR-8 ovarian carcinoma (RRID:CVCL_1629), , MCF-7 breast carcinoma (CRL-12584, RRID:CVCL_0031), MDA-MB-231 breast carcinoma (CRL-12532, RRID:CVCL_0062), NCI-H1876 small cell lung carcinoma (CRL-5902, RRID:CVCL_1503), NCI-H510A small cell lung carcinoma (HTB-184, RRID:CVCL_1565), NCI-H1417 (CRL-5869, RRID:CVCL_1469), and NCI-H196 small cell lung carcinoma (CRL-5823, RRID:CVCL_1509). Dr. Peter Houghton (Greehey Children's Cancer Research Institute, University of Texas Health Science Center, San Antonio, TX) provided Rh-18 rhabdomyosarcoma (RRID:CVCL_1659). Pooled donor human umbilical vein endothelial cells (HUVEC, Lonza, cat. CC-2519) and human mesenchymal stem cells (hMSC, Lonza, cat. PT-2501) were purchased from Lonza (Walkersville, MD).
Cell Culture. […]

[1] = compound alone, run of 10/11/2022

IC50 (curve of compound): 8120 nM and > 10000 nM
Structure (SMILES): C#Cc1c(F)ccc2cc(O)cc(-c3ncc4c(N5CC6CCC(C5)N6)nc(OCC56CCCN5CC(F)C6)nc4c3F)c12 (centres undefined)
viability, T/C (compound 0.0316 µM): 79.3% and 89.2% and 129% | viability, T/C (compound 0.1 µM): 74.3% and 82.3% and 122% | viability, T/C (compound 0.316 µM): 71.5% and 63.9% and 81.2% | viability, T/C (compound 1 µM): 91.2% and 75.4% and 66.3% | viability, T/C (compound 3.16 µM): 87.4% and 64.3% and 106% | viability, T/C (compound 10 µM): 43.4% and 60.4% and 67.7%

IC50 (curve of compound): 2410 nM and 2320 nM and 2350 nM
Structure (SMILES): C=C(F)C(=O)N1CCN(c2nc(OCC3CCCN3C)nc3c2CCN(c2cccc4cccc(Cl)c24)C3)CC1CC#N (centres undefined)
viability, T/C (compound 0.0316 µM): 94.1% and 96.8% and 96.1% | viability, T/C (compound 0.1 µM): 98.8% and 93.5% and 87.2% | viability, T/C (compound 0.316 µM): 90.9% and 56.4% and 91.5% | viability, T/C (compound 1 µM): 97.4% and 101% and 93.5% | viability, T/C (compound 3.16 µM): 35.8% and 36.4% and 35.5% | viability, T/C (compound 10 µM): 0.31% and 0.29% and 0.27%

IC50 (curve of compound): > 10000 nM
Structure (SMILES): C=CC(=O)N1CCN(c2nc(=O)n(-c3c(C)ccnc3C(C)C)c3nc(-c4c(O)cccc4F)c(F)cc23)C(C)C1 (centres undefined)
viability, T/C (compound 0.0316 µM): 117% and 122% and 92.1% | viability, T/C (compound 0.1 µM): 95.2% and 169% and 115% | viability, T/C (compound 0.316 µM): 106% and 125% and 109% | viability, T/C (compound 1 µM): 118% (2×) and 104% | viability, T/C (compound 3.16 µM): 133% and 137% and 106% | viability, T/C (compound 10 µM): 115% and 89.8% and 92%

IC50 (curve of compound): > 1000 nM
Structure (SMILES): CCN1CCN(Cc2ccc(Nc3ncc(F)c(-c4cc(F)c5nc(C)n(C(C)C)c5c4)n3)nc2)CC1
viability, T/C (compound 0.00316 µM): 88.8% and 66.9% and 96.3% | viability, T/C (compound 0.01 µM): 115% and 84.9% and 92.1% | viability, T/C (compound 0.0316 µM): 85.2% and 77.4% and 70.8% | viability, T/C (compound 0.1 µM): 66.5% and 65.2% and 78.4% | viability, T/C (compound 0.316 µM): 85.7% and 111% and 72.7% | viability, T/C (compound 1 µM): 143% and 152% and 65.1%

IC50 (curve of compound): 12.9 nM and 10.8 nM and 3.16 nM
Structure (SMILES): Cn1ncnc1[C@H]1c2n[nH]c(=O)c3cc(F)cc(c23)N[C@@H]1c1ccc(F)cc1
viability, T/C (compound 0.000316 µM): 113% and 102% and 90.3% | viability, T/C (compound 0.001 µM): 101% and 99.1% and 69.5% | viability, T/C (compound 0.00316 µM): 79.1% and 73.3% and 49.3% | viability, T/C (compound 0.01 µM): 51.2% and 49.3% and 46.3% | viability, T/C (compound 0.0316 µM): 41.5% and 46.6% and 46.8% | viability, T/C (compound 0.1 µM): 41.6% and 51.8% and 40.3%

IC50 (curve of compound): 589 nM and 729 nM and 730 nM
Structure (SMILES): O=C(c1ccc(F)c(F)c1Nc1ccc(I)cc1F)N1CC(O)([C@@H]2CCCCN2)C1
viability, T/C (compound 0.00316 µM): 91.5% and 92.7% and 97.3% | viability, T/C (compound 0.01 µM): 76.6% and 84.3% and 100% | viability, T/C (compound 0.0316 µM): 91.3% and 70.7% and 83.2% | viability, T/C (compound 0.1 µM): 77.7% and 78.5% and 78% | viability, T/C (compound 0.316 µM): 85% and 95.7% and 75.4% | viability, T/C (compound 1 µM): 20.7% and 36.6% and 40.9%

Second part, the compound before the results:

Structure (SMILES): CCN1C(C(=O)NC23CCC(C(=O)O)(CC2)CC3)C(c2cccc(Cl)c2F)C2(C(=O)Nc3cc(Cl)ccc32)C12CCCCC2 (centres undefined)
viability, T/C (compound 0.00949 µM): 53.3% and 52.8% | viability, T/C (compound 0.03 µM): 38.3% [middle of 15 runs] | viability, T/C (compound 0.0949 µM): 21.1% [middle of 15 runs] | viability, T/C (compound 0.3 µM): 13% [middle of 15 runs] | viability, T/C (compound 0.949 µM): 9.56% [middle of 15 runs] | viability, T/C (compound 3 µM): 9.14% [middle of 15 runs] | IC50 [1]: < 30 nM | IC50 (curve of compound): 17.8 nM and 11.6 nM

Structure (SMILES): CNC(C)C(=O)NC1CN(S(=O)(=O)c2cccc(S(=O)(=O)N3CCC4CCC(C(=O)NC(c5ccccc5)c5ccccc5)N4C(=O)C(NC(=O)C(C)NC)C3)c2)CCC2CCC(C(=O)NC(c3ccccc3)c3ccccc3)N2C1=O (centres undefined)
viability, T/C (compound 0.00316 µM): 80.3% and 79.9% and 75.9% | IC50 (compound alone, run of 11/15/2022): > 1000 nM | IC50 (curve of compound): 21.6 nM and 33.4 nM

Structure (SMILES): COc1c(OCCCN2CCOCC2)ccc2c3n(c(=NC(=O)c4cnc(N)nc4)nc12)CCN3
viability, T/C (compound 0.00316 µM): 64.9% and 91.3% and 71.5% | viability, T/C (compound 0.01 µM): 50.6% and 55% and 53.8% | viability, T/C (compound 0.0316 µM): 15.9% and 20.9% and 23.7% | viability, T/C (compound 0.1 µM): 6.98% and 6.83% and 7.49% | viability, T/C (compound 0.316 µM): 3.1% and 3.42% and 2.99% | viability, T/C (compound 1 µM): 1.11% and 1.4% and 0.6% | IC50 (curve of compound): 10.1 nM and 11.8 nM and 11.5 nM

Structure (SMILES): Cc1c(S(C)(=O)=O)c(-c2cc(F)cc(N3CCN(c4ccc(NS(=O)(=O)c5ccc(NC(CCN6CCC(C(=O)OCCCP(=O)(O)O)CC6)CSc6ccccc6)c(S(=O)(=O)C(F)(F)F)c5)cc4)CC3)c2)c(-c2ccc(Cl)cc2)n1C(C)C (centres undefined)
viability, T/C (compound 0.1 µM): 14.1% [middle of 14 runs] | viability, T/C (compound 0.316 µM): 10% [middle of 14 runs] | viability, T/C (compound 1 µM): 9.12% [middle of 13 runs] | viability, T/C (compound 3.16 µM): 6.19% [middle of 14 runs] | viability, T/C (compound 10 µM): 5.39% [middle of 14 runs] | IC50 [1]: < 100 nM

Structure (SMILES): Cc1nc(N2CCC3(CC2)COC(C)C3N)c(CO)nc1Sc1ccnc(N)c1Cl (centres undefined)
viability, T/C (compound 0.00949 µM): 73.9% and 66.6% and 93.2% | viability, T/C (compound 0.03 µM): 59.7% and 84% and 54% | viability, T/C (compound 0.0949 µM): 42.7% and 34.4% and 43% | viability, T/C (compound 0.3 µM): 35.3% and 19.2% and 23.9% | viability, T/C (compound 0.949 µM): 25.5% and 25.6% and 19.7% | viability, T/C (compound 3 µM): 13.4% and 15.9% and 15.6% | IC50 (curve of compound): 65.4 nM and 61.2 nM and 47.5 nM

Structure (SMILES): NC(=O)C(=Cn1cnc(-c2cc(C(F)(F)F)cc(C(F)(F)F)c2)n1)c1cncnc1
viability, T/C (compound 0.000949 µM): 85.9% and 82.9% and 85.5% | viability, T/C (compound 0.003 µM): 93.2% and 85.7% and 79.2% | viability, T/C (compound 0.00949 µM): 92.8% and 63.3% and 67.5% | viability, T/C (compound 0.03 µM): 53.9% and 57.6% and 61% | viability, T/C (compound 0.0949 µM): 40.6% and 46.8% and 52.6% | viability, T/C (compound 0.3 µM): 32.3% and 31.4% and 34.7% | IC50 (curve of compound): 38.8 nM and 58.3 nM and 88.7 nM

Structure (SMILES): NC1CCC(NC2CC2c2ccccc2)CC1 (centres undefined)
viability, T/C (compound 0.000316 µM): 135% and 130% and 96.5% | viability, T/C (compound 0.001 µM): 134% and 133% and 98% | viability, T/C (compound 0.00316 µM): 124% and 114% and 102% | viability, T/C (compound 0.01 µM): 120% and 114% and 103% | viability, T/C (compound 0.0316 µM): 120% and 98.2% and 110% | viability, T/C (compound 0.1 µM): 114% and 119% and 102% | IC50 (curve of compound): > 100 nM

Structure (SMILES): O=C(c1cc(Cc2n[nH]c(=O)c3ccccc23)ccc1F)N1CCN(C(=O)C2CC2)CC1
viability, T/C (compound 0.0316 µM): 108% and 86.4% and 91.5% | viability, T/C (compound 0.1 µM): 99.5% and 81.7% and 85.2% | viability, T/C (compound 0.316 µM): 59.4% and 79.7% and 82.2% | viability, T/C (compound 1 µM): 57.3% and 63.1% and 73.7% | viability, T/C (compound 3.16 µM): 44.9% and 53% and 35.5% | viability, T/C (compound 10 µM): 44.7% and 41.7% and 29.5% | IC50 (curve of compound): 919 nM and 3840 nM and 2050 nM
